# From patent US11008577B1 (priority 2017, dated 2021)
# Where a SMILES comes first, the peptide text is derived from it. Bridges are numbered along the chain shown (N, C = ends). [ ]: non-standard residue; d: D form. The star is where a group is joined. Ileψ(thiazoline)Cys = CC[C@H](C)[C@H](N)C1=N[C@H](C(=O)*)CS1; dOrn = NCCC[C@@H](N)C(=O)O
# Legend:
# [1] = system: high-lipid (HL) mutants; assay: Chemical sensitivity analysis, high-lipid mutants vs parent strain; format: cell-based, Rhodobacter sphaeroides; conditions: all HL mutants; 96-well plates, 30° C., 48 hours, OD 595 nm, normalized to DMSO control and parent strain; conc. per Table 4B
# [2] = system: HLM04 and HLM07; assay: Chemical sensitivity analysis, Cluster B strains; format: cell-based, Rhodobacter sphaeroides; conditions: 48 hours, OD 595 nm, conc. per Table 4B
# Experimental: (§1) Selected compounds (Tables 4A and 4B) were tested for their effects on growth of the parent strain to determine the highest doses that cause <30% growth reduction. Parent and high-lipid mutant strains were grown in the presence of the chemicals, or DMSO as a control, in 96-well plates at 30° C. with shaking for 48 hours. Final ODs were read at 595 nm on an Infinite® F500 microplate reader (Tecan). For each strain, final ODs for each drug treatment were first divided by the OD of the DMSO control for that strain to determine relative cell growth, and then the growth value for each treated culture was normalized by the parent strain growth under the same condition.
# [3] = system: HLM01, HLM02 and HLM05; assay: Chemical sensitivity analysis, Cluster A strains; format: cell-based, Rhodobacter sphaeroides; conditions: 48 hours, OD 595 nm, conc. per Table 4B
# [4] = system: HLM03; conditions: 48 hours, OD 595 nm, conc. per Table 4B
# Experimental: as §1
compound,measurement,setting,value
"CCCCCCCCCCCCOS(=O)(=O)[O-].[Na+] [SDS, sodium dodecyl sulfate]",growth of the high-lipid mutants compared to the parent strain (relative fitness),[1],many or all of the high-lipid mutants showed increased sensitivity
CC[C@H](C)[C@H](N)C1=N[C@H](C(=O)N[C@@H](CC(C)C)C(=O)N[C@H](CCC(=O)O)C(=O)N[C@H](C(=O)N[C@H]2CCCCNC(=O)[C@H](CC(N)=O)NC(=O)[C@@H](CC(=O)O)NC(=O)[C@H](Cc3cnc[nH]3)NC(=O)[C@@H](Cc3ccccc3)NC(=O)[C@H]([C@@H](C)CC)NC(=O)[C@@H](CCCN)NC2=O)[C@@H](C)CC)CS1 [bacitracin] ({Ileψ(thiazoline)Cys}-L[dE]IK[dOrn]I[dF]H[dD]N; lactam 4-C),"sensitivity compared to the parent strain (relative growth, cluster ** in FIG. 3)",[2],increased sensitivity
CO/N=C(\C(=O)N[C@@H]1C(=O)N2C(C(=O)O)=C(CSc3nc(=O)c(=O)[nH]n3C)CS[C@H]12)c1csc(N)n1 [ceftriaxone],"sensitivity compared to the parent strain (relative growth, cluster ** in FIG. 3)",[2],increased sensitivity
CC[C@H]1OC(=O)[C@H](C)[C@@H](O[C@H]2C[C@@](C)(OC)[C@@H](O)[C@H](C)O2)[C@H](C)[C@@H](O[C@@H]2O[C@H](C)C[C@H](N(C)C)[C@H]2O)[C@](C)(OC)C[C@@H](C)C(=O)[C@H](C)[C@@H](O)[C@]1(C)O [clarithromycin],"sensitivity compared to the parent strain (relative growth, cluster * in FIG. 3)",[3],sensitive
CC[C@H]1OC(=O)[C@H](C)[C@@H](O[C@H]2C[C@@](C)(OC)[C@@H](O)[C@H](C)O2)[C@H](C)[C@@H](O[C@@H]2O[C@H](C)C[C@H](N(C)C)[C@H]2O)[C@](C)(O)C[C@@H](C)C(=O)[C@H](C)[C@@H](O)[C@]1(C)O [erythromycin],"sensitivity compared to the parent strain (relative growth, cluster * in FIG. 3)",[3],sensitive
OO [hydrogen peroxide],sensitivity compared to the parent strain (relative growth),[4],increased sensitivity
CO[C@H]1/C=C/O[C@@]2(C)Oc3c(C)c(O)c4c(O)c(c5c(nc6cc(C)ccn65)c4c3C2=O)NC(=O)/C(C)=C\C=C\[C@H](C)[C@H](O)[C@@H](C)[C@@H](O)[C@@H](C)[C@H](OC(C)=O)[C@@H]1C [rifaximin],"sensitivity compared to the parent strain (relative growth, cluster * in FIG. 3)",[3],sensitive
neomycin,growth of the high-lipid mutants compared to the parent strain (relative fitness),[1],no growth difference
